Laboratory results published in US20230085307A1, “PYRIDAZINONE COMPOUND AND HERBICIDE” (NISSAN CHEMICAL CORPORATION, priority 2019, published 2023).

How the values were obtained:
southern crabgrass [1] = test: Test Example 4: herbicidal effect by soil treatment (Table 19, symbol F); assay type: in vivo, southern crabgrass (Digitaria ciliaris); conditions: amount of applied herbicide 320 g/ha
Procedure, shortened: (§1)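 In this soil treatment, the formulated compound reached the seeds only through the soil: seeds were buried about 1.5 cm deep in sterilized diluvial soil, then the diluted emulsion was sprayed over the surface. After three weeks at 25° C. to 30° C. in a greenhouse, effects were graded on criteria from an earlier test.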

green foxtail [2] = test: Test Example 4: herbicidal effect by soil treatment (Table 19, symbol G); assay type: in vivo, green foxtail (Setaria viridis); conditions: amount of applied herbicide 320 g/ha
Procedure, shortened: as §1

barnyard grass [3] = test: Test Example 4: herbicidal effect by soil treatment (Table 19, symbol H); assay type: in vivo, barnyard grass (Echinochloa crus-galli); conditions: amount of applied herbicide 320 g/ha
Procedure, shortened: as §1

wild oat [4] = test: Test Example 4: herbicidal effect by soil treatment (Table 19, symbol I); assay type: in vivo, wild oat (Avena fatua); conditions: amount of applied herbicide 320 g/ha
Procedure, shortened: as §1

blackgrass [5] = test: Test Example 4: herbicidal effect by soil treatment (Table 19, symbol J); assay type: in vivo, blackgrass (Alopecurus myosuroides); conditions: amount of applied herbicide 320 g/ha
Procedure, shortened: as §1

Italian ryegrass [6] = test: Test Example 4: herbicidal effect by soil treatment (Table 19, symbol K); assay type: in vivo, Italian ryegrass (Lolium multiflorum); conditions: amount of applied herbicide 320 g/ha
Procedure, shortened: as §1

windgrass [7] = test: Test Example 4: herbicidal effect by soil treatment (Table 19, symbol L); assay type: in vivo, windgrass (Apera spica-venti); conditions: amount of applied herbicide 320 g/ha
Procedure, shortened: as §1

velvetleaf [8] = test: Test Example 4: herbicidal effect by soil treatment (Table 19, symbol M); assay type: in vivo, velvetleaf (Abutilon theophrasti); conditions: amount of applied herbicide 320 g/ha
Procedure, shortened: as §1

redroot pigweed [9] = test: Test Example 4: herbicidal effect by soil treatment (Table 19, symbol N); assay type: in vivo, redroot pigweed (Amaranthus retroflexus); conditions: amount of applied herbicide 320 g/ha
Procedure, shortened: as §1

lambsquarters [10] = test: Test Example 4: herbicidal effect by soil treatment (Table 19, symbol O); assay type: in vivo, lambsquarters (Chenopodium album); conditions: amount of applied herbicide 320 g/ha
Procedure, shortened: as §1

chickweed [11] = test: Test Example 4: herbicidal effect by soil treatment (Table 19, symbol P); assay type: in vivo, common chickweed (Stellaria media); conditions: amount of applied herbicide 320 g/ha
Procedure, shortened: as §1

false cleavers [12] = test: Test Example 4: herbicidal effect by soil treatment (Table 19, symbol Q); assay type: in vivo, false cleavers (Galium spurium); conditions: amount of applied herbicide 320 g/ha
Procedure, shortened: as §1

persian speedwell [13] = test: Test Example 4: herbicidal effect by soil treatment (Table 19, symbol R); assay type: in vivo, Persian speedwell (Veronica persica); conditions: amount of applied herbicide 320 g/ha
Procedure, shortened: as §1

southern crabgrass [14] = test: Test Example 5: herbicidal effect by foliage application, plastic box (Table 20, symbol F); assay type: in vivo, southern crabgrass (Digitaria ciliaris); conditions: foliage application, 320 g/ha, three weeks after application
Procedure, shortened: (§2)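 Plants were sown into sterilized diluvial soil under about 1.5 cm cover and kept in a greenhouse at 25° C. to 30° C. Fourteen days on, foliage received an even spray of the diluted emulsion. Herbicidal or crop effect was judged three weeks afterwards.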

green foxtail [15] = test: Test Example 5: herbicidal effect by foliage application, plastic box (Table 20, symbol G); assay type: in vivo, green foxtail (Setaria viridis); conditions: foliage application, 320 g/ha, three weeks after application
Procedure, shortened: as §2

barnyard grass [16] = test: Test Example 5: herbicidal effect by foliage application, plastic box (Table 20, symbol H); assay type: in vivo, barnyard grass (Echinochloa crus-galli); conditions: foliage application, 320 g/ha, three weeks after application
Procedure, shortened: as §2

wild oat [17] = test: Test Example 5: herbicidal effect by foliage application, plastic box (Table 20, symbol I); assay type: in vivo, wild oat (Avena fatua); conditions: foliage application, 320 g/ha, three weeks after application
Procedure, shortened: as §2

blackgrass [18] = test: Test Example 5: herbicidal effect by foliage application, plastic box (Table 20, symbol J); assay type: in vivo, blackgrass (Alopecurus myosuroides); conditions: foliage application, 320 g/ha, three weeks after application
Procedure, shortened: as §2

Italian ryegrass [19] = test: Test Example 5: herbicidal effect by foliage application, plastic box (Table 20, symbol K); assay type: in vivo, Italian ryegrass (Lolium multiflorum); conditions: foliage application, 320 g/ha, three weeks after application
Procedure, shortened: as §2

windgrass [20] = test: Test Example 5: herbicidal effect by foliage application, plastic box (Table 20, symbol L); assay type: in vivo, windgrass (Apera spica-venti); conditions: foliage application, 320 g/ha, three weeks after application
Procedure, shortened: as §2

velvetleaf [21] = test: Test Example 5: herbicidal effect by foliage application, plastic box (Table 20, symbol M); assay type: in vivo, velvetleaf (Abutilon theophrasti); conditions: foliage application, 320 g/ha, three weeks after application
Procedure, shortened: as §2

redroot pigweed [22] = test: Test Example 5: herbicidal effect by foliage application, plastic box (Table 20, symbol N); assay type: in vivo, redroot pigweed (Amaranthus retroflexus); conditions: foliage application, 320 g/ha, three weeks after application
Procedure, shortened: as §2

lambsquarters [23] = test: Test Example 5: herbicidal effect by foliage application, plastic box (Table 20, symbol O); assay type: in vivo, lambsquarters (Chenopodium album); conditions: foliage application, 320 g/ha, three weeks after application
Procedure, shortened: as §2

chickweed [24] = test: Test Example 5: herbicidal effect by foliage application, plastic box (Table 20, symbol P); assay type: in vivo, common chickweed (Stellaria media); conditions: foliage application, 320 g/ha, three weeks after application
Procedure, shortened: as §2

false cleavers [25] = test: Test Example 5: herbicidal effect by foliage application, plastic box (Table 20, symbol Q); assay type: in vivo, false cleavers (Galium spurium); conditions: foliage application, 320 g/ha, three weeks after application
Procedure, shortened: as §2

persian speedwell [26] = test: Test Example 5: herbicidal effect by foliage application, plastic box (Table 20, symbol R); assay type: in vivo, Persian speedwell (Veronica persica); conditions: foliage application, 320 g/ha, three weeks after application
Procedure, shortened: as §2

barnyard grass [27] = test: Test Example 3: herbicidal effect by foliage application, Wagner pot (Table 18, symbol H); assay type: in vivo, barnyard grass (Echinochloa crus-galli); conditions: 320 g/ha
Procedure, shortened: (§3)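 Plants were sown in alluvial soil held under 0.1–0.5 cm standing water and grown 14 days in a greenhouse at 25–30 °C. An emulsifiable formulation, water-diluted to the set dose, was then sprayed onto the foliage, and effects were scored three weeks later using previously defined criteria.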

Chinese sprangletop = test: Test Example 3: herbicidal effect by foliage application, Wagner pot (Table 18, symbol D); assay type: in vivo, chinese sprangletop (Leptochloa chinensis); conditions: 320 g/ha
Procedure, shortened: as §3

rice flat sedge = test: Test Example 3: herbicidal effect by foliage application, Wagner pot (Table 18, symbol E); assay type: in vivo, rice flat sedge (Cyperus iria); conditions: 320 g/ha
Procedure, shortened: as §3

## CCCC(=O)Oc1c(C)nn(C)c(=O)c1-c1c(-c2ccsc2)sc2ccccc12 [1-084]
Southern crabgrass [1]
  herbicidal effect rating, F: southern crabgrass: 1 (Herbicidal rate of 5% or more and less than 20%)
Green foxtail [2]
  herbicidal effect rating, G: green foxtail: 2 (Herbicidal rate of 20% or more and less than 40%)
Barnyard grass [3]
  herbicidal effect rating, H: barnyard grass: 1 (Herbicidal rate of 5% or more and less than 20%)
Wild oat [4]
  herbicidal effect rating, I: wild oat: 0 (Herbicidal rate of 5% or less (almost no effect))
Blackgrass [5]
  herbicidal effect rating, J: blackgrass: 0 (Herbicidal rate of 5% or less (almost no effect))
Italian ryegrass [6]
  herbicidal effect rating, K: Italian ryegrass: 0 (Herbicidal rate of 5% or less (almost no effect))
Windgrass [7]
  herbicidal effect rating, L: windgrass: 0 (Herbicidal rate of 5% or less (almost no effect))
Velvetleaf [8]
  herbicidal effect rating, M: velvetleaf: 0 (Herbicidal rate of 5% or less (almost no effect))
Redroot pigweed [9]
  herbicidal effect rating, N: redroot pigweed: 0 (Herbicidal rate of 5% or less (almost no effect))
Lambsquarters [10]
  herbicidal effect rating, O: lambsquarters: 0 (Herbicidal rate of 5% or less (almost no effect))
Chickweed [11]
  herbicidal effect rating, P: chickweed: 1 (Herbicidal rate of 5% or more and less than 20%)
False cleavers [12]
  herbicidal effect rating, Q: false cleavers: 0 (Herbicidal rate of 5% or less (almost no effect))
Persian speedwell [13]
  herbicidal effect rating, R: persian speedwell: 0 (Herbicidal rate of 5% or less (almost no effect))
Southern crabgrass [14]
  herbicidal effect grade, F: southern crabgrass: 0 (Herbicidal rate of 5% or less (almost no effect))
Green foxtail [15]
  herbicidal effect grade, G: green foxtail: 0 (Herbicidal rate of 5% or less (almost no effect))
Barnyard grass [16]
  herbicidal effect grade, H: barnyard grass: 0 (Herbicidal rate of 5% or less (almost no effect))
Wild oat [17]
  herbicidal effect grade, I: wild oat: 0 (Herbicidal rate of 5% or less (almost no effect))
Blackgrass [18]
  herbicidal effect grade, J: blackgrass: 0 (Herbicidal rate of 5% or less (almost no effect))
Italian ryegrass [19]
  herbicidal effect grade, K: Italian ryegrass: 1 (Herbicidal rate of 5% or more and less than 20%)
Windgrass [20]
  herbicidal effect grade, L: windgrass: 0 (Herbicidal rate of 5% or less (almost no effect))
Velvetleaf [21]
  herbicidal effect grade, M: velvetleaf: 0 (Herbicidal rate of 5% or less (almost no effect))
Redroot pigweed [22]
  herbicidal effect grade, N: redroot pigweed: 0 (Herbicidal rate of 5% or less (almost no effect))
Lambsquarters [23]
  herbicidal effect grade, O: lambsquarters: 0 (Herbicidal rate of 5% or less (almost no effect))
Chickweed [24]
  herbicidal effect grade, P: chickweed: 5 (Herbicidal rate of 90% or more (almost completely withered))
False cleavers [25]
  herbicidal effect grade, Q: false cleavers: 0 (Herbicidal rate of 5% or less (almost no effect))
Persian speedwell [26]
  herbicidal effect grade, R: persian speedwell: 0 (Herbicidal rate of 5% or less (almost no effect))

## CCCC(=O)Oc1c(C)nn(C)c(=O)c1-c1c(-c2ccc3c(c2)OCCO3)sc2cc(Cl)ccc12 [3-048]
Barnyard grass [27]
  herbicidal effect on barnyard grass (H): 4 (Herbicidal rate of 70% or more and less than 90%)
Chinese sprangletop
  herbicidal effect on Chinese sprangletop (D): 0 (Herbicidal rate of 5% or less (almost no effect))
Rice flat sedge
  herbicidal effect on rice flat sedge (E): 2 (Herbicidal rate of 20% or more and less than 40%)
Southern crabgrass [1]
  F: southern crabgrass, herbicidal effect grade: 0 (Herbicidal rate of 5% or less (almost no effect))
Green foxtail [2]
  G: green foxtail, herbicidal effect grade: 0 (Herbicidal rate of 5% or less (almost no effect))
Barnyard grass [3]
  H: barnyard grass, herbicidal effect grade: 0 (Herbicidal rate of 5% or less (almost no effect))
Wild oat [4]
  I: wild oat, herbicidal effect grade: 0 (Herbicidal rate of 5% or less (almost no effect))
Blackgrass [5]
  J: blackgrass, herbicidal effect grade: 0 (Herbicidal rate of 5% or less (almost no effect))
Italian ryegrass [6]
  K: Italian ryegrass, herbicidal effect grade: 0 (Herbicidal rate of 5% or less (almost no effect))
Windgrass [7]
  L: windgrass, herbicidal effect grade: 0 (Herbicidal rate of 5% or less (almost no effect))
Velvetleaf [8]
  M: velvetleaf, herbicidal effect grade: 0 (Herbicidal rate of 5% or less (almost no effect))
Redroot pigweed [9]
  N: redroot pigweed, herbicidal effect grade: 0 (Herbicidal rate of 5% or less (almost no effect))
Lambsquarters [10]
  O: lambsquarters, herbicidal effect grade: 0 (Herbicidal rate of 5% or less (almost no effect))
Chickweed [11]
  P: chickweed, herbicidal effect grade: 1 (Herbicidal rate of 5% or more and less than 20%)
False cleavers [12]
  Q: false cleavers, herbicidal effect grade: 4 (Herbicidal rate of 70% or more and less than 90%)
Persian speedwell [13]
  R: persian speedwell, herbicidal effect grade: 0 (Herbicidal rate of 5% or less (almost no effect))
Southern crabgrass [14]
  F: southern crabgrass, herbicidal effect grade: 0 (Herbicidal rate of 5% or less (almost no effect))
Green foxtail [15]
  G: green foxtail, herbicidal effect grade: 0 (Herbicidal rate of 5% or less (almost no effect))
Barnyard grass [16]
  H: barnyard grass, herbicidal effect grade: 0 (Herbicidal rate of 5% or less (almost no effect))
Wild oat [17]
  I: wild oat, herbicidal effect grade: 0 (Herbicidal rate of 5% or less (almost no effect))
Blackgrass [18]
  J: blackgrass, herbicidal effect grade: 0 (Herbicidal rate of 5% or less (almost no effect))
Italian ryegrass [19]
  K: Italian ryegrass, herbicidal effect grade: 0 (Herbicidal rate of 5% or less (almost no effect))
Windgrass [20]
  L: windgrass, herbicidal effect grade: 0 (Herbicidal rate of 5% or less (almost no effect))
Velvetleaf [21]
  M: velvetleaf, herbicidal effect grade: 1 (Herbicidal rate of 5% or more and less than 20%)
Redroot pigweed [22]
  N: redroot pigweed, herbicidal effect grade: 3 (Herbicidal rate of 40% or more and less than 70%)
Lambsquarters [23]
  O: lambsquarters, herbicidal effect grade: 3 (Herbicidal rate of 40% or more and less than 70%)
Chickweed [24]
  P: chickweed, herbicidal effect grade: 5 (Herbicidal rate of 90% or more (almost completely withered))
False cleavers [25]
  Q: false cleavers, herbicidal effect grade: 4 (Herbicidal rate of 70% or more and less than 90%)
